Test results as given in the supplement of paper PMC10307832.

What was measured:
Experiment in all cases: relative viability (nuclei count vs DMSO), 5 days (fraction); higher = more cells survive
NCI-H1793 = tested on: NCI-H1793
Summary of the method: (§1)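 Relative viability equals treated-well nuclei counts divided by vehicle-well nuclei counts. Counts came from 4× images of lung cancer cell lines grown in 1536-well plates for 5 days after pin-tool dosing on the day after seeding. Dosing used one drug alone or a fixed anchor-drug dose plus five library-drug doses (not always all listed) in √10 steps, and values are medians of duplicate plates.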

NCI-H1944 = tested on: NCI-H1944
Summary of the method: as §1

NCI-H2087 = tested on: NCI-H2087
Summary of the method: as §1

NCI-H2228 = tested on: NCI-H2228
Summary of the method: as §1

NCI-H2405 = tested on: NCI-H2405
Summary of the method: as §1

NCI-H3122 = tested on: NCI-H3122
Summary of the method: as §1

NCI-H322M = tested on: NCI-H322M
Summary of the method: as §1

NCI-H647 = tested on: NCI-H647
Summary of the method: as §1

NCI-H727 = tested on: NCI-H727
Summary of the method: as §1

RERF-LC-KJ = tested on: RERF-LC-KJ
Summary of the method: as §1

SK-LU-1 = tested on: SK-LU-1
Summary of the method: as §1

`Cc1sc2c(c1C)C(c1ccc(Cl)cc1)=N[C@@H](CC(=O)OC(C)(C)C)c1nnc(C)n1-2` [JQ1] + N=C(N)NC(=N)NCCc1ccccc1 [Phenformin] (partner 250 µM) gave a relative viability (NCI-H1793; first compound 0.04 µM) of 0.315, a relative viability (NCI-H1793; first compound 0.1265 µM) of 0.382 and a relative viability (NCI-H1793; first compound 0.4 µM) of 0.35. The relative viability (NCI-H1793; first compound 1.265 µM) was 0.274, the relative viability (NCI-H1793; first compound 4 µM) was 0.378 and the relative viability (NCI-H1944; first compound 0.04 µM) was 0.195. For the same compound, the relative viability (NCI-H1944; first compound 0.1265 µM) was 0.174, the relative viability (NCI-H1944; first compound 0.4 µM) was 0.191 and the relative viability (NCI-H1944; first compound 1.265 µM) was 0.149. It also gave a relative viability (NCI-H1944; first compound 4 µM) of 0.182, a relative viability (NCI-H2087; first compound 0.04 µM) of 0.52 and a relative viability (NCI-H2087; first compound 0.1265 µM) of 0.406. The relative viability (NCI-H2087; first compound 0.4 µM) was 0.406, the relative viability (NCI-H2087; first compound 1.265 µM) was 0.266 and the relative viability (NCI-H2087; first compound 4 µM) was 0.273. It also gave a relative viability (NCI-H2228; first compound 0.04 µM) of 0.305, a relative viability (NCI-H2228; first compound 0.1265 µM) of 0.275 and a relative viability (NCI-H2228; first compound 0.4 µM) of 0.297. The relative viability (NCI-H2228; first compound 1.265 µM) was 0.181, the relative viability (NCI-H2228; first compound 4 µM) was 0.207 and the relative viability (NCI-H2405; first compound 0.04 µM) was 0.381. For the same compound, the relative viability (NCI-H2405; first compound 0.1265 µM) was 0.224, the relative viability (NCI-H2405; first compound 0.4 µM) was 0.385 and the relative viability (NCI-H2405; first compound 1.265 µM) was 0.239. The relative viability (NCI-H2405; first compound 4 µM) was 0.223, the relative viability (NCI-H3122; first compound 0.04 µM) was 0.362 and the relative viability (NCI-H3122; first compound 0.4 µM) was 0.377. It also gave a relative viability (NCI-H3122; first compound 1.265 µM) of 0.313, a relative viability (NCI-H3122; first compound 4 µM) of 0.264 and a relative viability (NCI-H322M; first compound 0.04 µM) of 0.686. For the same compound, the relative viability (NCI-H322M; first compound 0.1265 µM) was 0.746, the relative viability (NCI-H322M; first compound 0.4 µM) was 0.66 and the relative viability (NCI-H322M; first compound 1.265 µM) was 0.373. It also gave a relative viability (NCI-H322M; first compound 4 µM) of 0.417, a relative viability (NCI-H647; first compound 0.04 µM) of 0.433 and a relative viability (NCI-H647; first compound 0.1265 µM) of 0.306. It also gave a relative viability (NCI-H647; first compound 0.4 µM) of 0.229, a relative viability (NCI-H647; first compound 1.265 µM) of 0.0637 and a relative viability (NCI-H647; first compound 4 µM) of 0.0562. The relative viability (NCI-H727; first compound 0.04 µM) was 0.458, the relative viability (NCI-H727; first compound 0.1265 µM) was 0.282 and the relative viability (NCI-H727; first compound 0.4 µM) was 0.368. It also gave a relative viability (NCI-H727; first compound 1.265 µM) of 0.393, a relative viability (NCI-H727; first compound 4 µM) of 0.343 and a relative viability (RERF-LC-KJ; first compound 0.04 µM) of 0.402. The relative viability (RERF-LC-KJ; first compound 0.1265 µM) was 0.374, the relative viability (RERF-LC-KJ; first compound 0.4 µM) was 0.324 and the relative viability (RERF-LC-KJ; first compound 1.265 µM) was 0.316. It also gave a relative viability (RERF-LC-KJ; first compound 4 µM) of 0.292, a relative viability (SK-LU-1; first compound 0.04 µM) of 0.607 and a relative viability (SK-LU-1; first compound 0.1265 µM) of 0.386. It also gave a relative viability (SK-LU-1; first compound 0.4 µM) of 0.458, a relative viability (SK-LU-1; first compound 1.265 µM) of 0.171 and a relative viability (SK-LU-1; first compound 4 µM) of 0.136.
